Tests used:
[1] = test system: Orobanche cumana Wallr. seeds (race F; seed lots IN146 and IN153); test: Germination of preconditioned Orobanche cumana seeds on glass fiber filter paper in petri dishes; format: in vivo; conditions: mean, N = 5 × 100 seeds, re-transformed data; for Germination (%): seed lot IN146 raceF, examined 10 days later
Protocol: The effect of compounds of formula (I) on germination of Orobanche cumana Wallr. seeds was evaluated on glass fiber filter paper (GFFP) in petri dishes. Seeds were preconditioned at moisture and suitable temperature to become responsive to the specific chemical germination stimulants.
Test compounds were dissolved in DMSO (10 000 mg 1^−1) and stored at room temperature in a desiccators with desiccants. The stock solutions were dissolved with deionised water to the appropriate final test concentration.
Seeds of O. cumana race ‘F’ were collected from sunflower fields in Manzanilla (Seville, Spain) in 2006 (seed lot IN146) and 2008 (seed lot IN153) and stored at room temperature. To separate seeds from heavy organic debris, a modified sucrose floatation technique as described by Hartman & Tanimonure (Plant Disease (1991), 75, p. 494) was applied. Seeds were filled into a separation funnel and stirred in water. When seeds floated to the surface, the water fraction containing heavy debris was discarded. Seeds were re-suspended in 2.5M sucrose solution (specific gravity of 1.20) and heavy debris was allowed to settle down for 60 min. After removing debris, seeds were disinfected in 1% sodium hypochlorite solution and 0.025% (v/v) Tween 20 for 2 min. The seeds were decanted onto two layers of cheesecloth, rinsed with sterile deionised water and re-suspended in sterile deionised water. Two ml of the seed suspension containing approximately 150-400 seeds were spread evenly on two layers of sterile glass fiber filter paper disc ([…]) in Petri dishes (Ø9 cm). After wetting the discs with 3 ml sterile deionised water, petri dishes were sealed with parafilm. Seeds were incubated for 10 days at 20° C. in the dark for seed conditioning. The upper disc with conditioned seeds was briefly dried, transferred to a petri dish lined with a dry GFFP disc, and wetted with 6 ml of the appropriate test solution. The compounds of formula (I) were tested at concentrations of 0.001, 0.01, and 0.1 mg 1^−1. The strigolactone analogue GR24 (commercially available as a mixture of isomers) was included as positive control and 0.001% DMSO as negative control. All treatments were tested in five replicates. Seeds were re-incubated at 20° C. in the dark and examined for germination 10 days later. The radicles of germinated seeds were stained for 5 min with blue ink (MIGROS, Switzerland) in 5% acetic acid according to Long et al. (Seed Science Research (2008), 18, p. 125). After staining, seeds were scanned using a flatbed scanner with an optical resolution of 1200 dpi (PULSTEK, OpticPro ST28) or photographed using a camera stand mounted with a digital SLR camera (Canon EOS 5D). Germination of 100 seeds per replicate was evaluated on digital images. Seeds were considered germinated when the radicle protruded from the seed coat. SAS statistical software package version 9.1 was used for analysis of variance (GLM procedure) and multiple comparisons of treatment means (Sidak t-test) based on arcsine transformed percentage germination data.

[2] = 0.001 mg l^−1, lot IN146, raceF, Table 4
[3] = 0.01 mg l^−1, lot IN146, raceF, Table 4
[4] = 0.1 mg l^−1, lot IN146, raceF, Table 4
[5] = Table 5, seed lot IN146, race F, 0.001 mg l^−1
[6] = Table 5, seed lot IN146, race F, 0.01 mg l^−1
[7] = Table 5, seed lot IN146, race F, 0.1 mg l^−1

SMILES	Germination % at concentration of 0.001 mg l^−1 [1, 2]	Germination % at concentration of 0.01 mg l^−1 [1, 3]	Germination % at concentration of 0.1 mg l^−1 [1, 4]	Germination % at concentration of 0.001 mg l^−1 [1, 5] [ab %]	Germination % at concentration of 0.01 mg l^−1 [1, 6]	Germination % at concentration of 0.1 mg l^−1 [1, 7] [ab %]	also measured
CC1=CC(OC=C2C(=O)NC3c4c(Br)cccc4CC23)OC1=O (stereo not shown) [Compound A6]	22.3 cde %	59.2 abcd %	27.8 bcde %				
CCCc1cccc2c1CC1C(=COC3C=C(C)C(=O)O3)C(=O)NC21 (stereo not shown) [Compound A14]				85.3	91.5 a %	86.2	
CC1=CC(OC=C2C(=O)NC3c4cccc(C)c4CC23)OC1=O (stereo not shown) [Compound A5]	74.5 abc %	90 a %	85.5 ab %				
CC1=CC(OC=C2C(=O)NC3c4cccc(C#N)c4CC23)OC1=O (stereo not shown) [Compound A11]				86.3	88.4 ab %	85.5	
COc1ccc2c(c1)CC1C(=COC3C=C(C)C(=O)O3)C(=O)NC21 (stereo not shown) [Compound A4]							Germination % at concentration of 0.001 mg l^−1 ([1]; Table 7, seed lot IN153, race F, 0.001 mg l^−1): 98.9 a %; Germination % at concentration of 0.01 mg l^−1 ([1]; Table 7, seed lot IN153, race F, 0.01 mg l^−1): 95.8 ab %; Germination % at concentration of 0.1 mg l^−1 ([1]; Table 7, seed lot IN153, race F, 0.1 mg l^−1): 99.0 a %
CC1=CC(O/C=C2/C(=O)N(C)C3c4ccccc4C[C@H]23)OC1=O (stereo in doubt) [Compound P3, 1-Methyl-(3aR*,8bS*,5′R*)-3-[1-(4-Methyl-5-oxo-2,5-dihydro-furan-2-yloxy)-meth-(E)-ylidene]-3,3a,4,8b-tetrahydro-1H-indeno[1,2-b]pyrrol-2-one]							melting point: 130 to 135 °C; Germination (%) ([1]; 0.001 mg l^−1): 68%; Germination (%) ([1]; 0.01 mg l^−1): 82.4%; Germination (%) ([1]; 0.1 mg l^−1): 84%

— patent US8946280B2, “Plant growth regulating compounds” (Syngenta Participations AG, priority 2010, dated 2015)
